The values that follow come from ChEMBL document CHEMBL1156013, “Pharmacophore-guided lead optimization: the rational design of a non-zinc coordinating, sub-micromolar inhibitor of the botulinum neurotoxin serotype a metalloprotease” (Bioorg Med Chem Lett, 2009).

Assay [1] concerns the target Botulinum neurotoxin type A (Clostridium botulinum, UniProt P0DPI0). Kind of assay: Inhibition of Clostridium botulinum neurotoxin A light chain by HPLC-based assay.
For assay [2], the target named is Botulinum neurotoxin type A (Clostridium botulinum) (UniProt P0DPI0). Description: Inhibition of Clostridium botulinum neurotoxin A light chain at 20 uM by HPLC-based assay.
Sequence of Botulinum neurotoxin type A (Clostridium botulinum) (P0DPI0 2-448 limits assumed): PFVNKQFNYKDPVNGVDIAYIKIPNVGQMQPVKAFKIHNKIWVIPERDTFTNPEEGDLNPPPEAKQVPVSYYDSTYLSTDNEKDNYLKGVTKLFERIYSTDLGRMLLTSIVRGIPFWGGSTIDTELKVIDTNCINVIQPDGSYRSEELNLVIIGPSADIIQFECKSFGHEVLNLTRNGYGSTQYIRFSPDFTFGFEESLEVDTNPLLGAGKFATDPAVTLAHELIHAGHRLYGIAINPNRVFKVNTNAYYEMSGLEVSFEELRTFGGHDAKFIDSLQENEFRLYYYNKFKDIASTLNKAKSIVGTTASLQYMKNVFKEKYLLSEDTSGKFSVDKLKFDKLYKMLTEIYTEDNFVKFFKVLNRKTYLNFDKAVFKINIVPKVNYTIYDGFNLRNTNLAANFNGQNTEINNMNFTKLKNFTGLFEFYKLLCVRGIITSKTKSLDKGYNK

Sequence of Botulinum neurotoxin type A (P0DPI0 2-448 limits assumed): as above

Usually Ki stands for a measure of affinity in units of concentration, obtained from inhibition or displacement. Lower therefore signals a stronger hold on the target. Usually inhibition stands for the change of the read-out against control, counted positive when it falls. A lower inhibition goes with little suppression. In assay [1], `N=C(N)c1ccc2cc(-c3ccc(Oc4ccc(/C(N)=N/CCCNc5ccnc6cc(Cl)ccc56)cc4)cc3)[nH]c2c1` returned a Ki of 0.6 µM. The inhibition in assay [2] is 95%.
Regarding `Clc1ccc2c(NCCCNCCCNc3ccnc4cc(Cl)ccc34)ccnc2c1`, the inhibition in assay [2] worked out at 60%.
In general, IC50 refers to the concentration at which inhibition is half-maximal. The low end stands for greater potency in that assay, the high end for weaker potency in that assay. In assay [1], `N=C(N)c1ccc(Oc2ccc(-c3cc4ccc(C(=N)N)cc4[nH]3)cc2)cc1` came in with an IC50 of 3 µM and an inhibitory constant (Ki) of 10 µM.
With `N=C(N)c1ccc(Oc2ccc(-c3cc4ccc(/C(N)=N/CCCNc5ccnc6cc(Cl)ccc56)cc4[nH]3)cc2)cc1`, the Ki in assay [1] was found to be 0.6 µM. In addition, in assay [2], the inhibition came to 95%.
